# Experimental data as given in US11078184B2, “Dexrabeprazole sodium compound and pharmaceutical composition thereof” (JIANGSU AOSAIKANG PHARMACEUTICAL CO., LTD., priority 2017, dated 2021).
# Experiments:
# Type in all cases: physicochemical
# [1] = Determination of hygroscopic moisture; settings: 25° C. thermostatic drier over saturated ammonium chloride solution, sodium salt
# Procedure: Determination of hygroscopic moisture: 25±+1° C. Thermostatic Drier (with a saturated solution of ammonium chloride being placed at bottom of the drier).
# [2] = Test of influence factors (stability: appearance and relevant materials by HPLC)
# Procedure: Chromatographic conditions of relevant materials: Chromatographic column: charged with octadecylsilane bonded silica as a filler (Agilent ZORBAX Extend C18, 250×4.6 mm, […]); Mobile phase A: 0.025 mol/L of phosphate solution (the pH of 0.025 mol/L of dipotassium phosphate solution was adjusted to 7.2 with phosphoric acid)-acetonitrile (95:5); Mobile phase B: methanol; Mobile phase C: acetonitrile; A linear gradient elution is carried out in accordance with the following table. Detection wavelength: 280 nm, 220 nm (for impurity H) Flowrate: 1.0 ml/min Column temperature: 25° C. Sample size: 5 μl Diluent: the pH of 0.1 mol/L of dipotassium phosphate solution was adjusted to 11.3 with 2 mol/L potassium hydroxide solution-methanol (45:55). Crystal forms A, B, and C (each 100 mg) were placed under different conditions, and sampled at Days 0, 10, 20, and 30 for detecting their characters and relevant materials, respectively.
# [3] = Determination of angle of repose (powder flowability); settings: average of three determinations; sodium salt
# Procedure: Determination of angle of repose: BT-1001 Intelligent Powder Characteristic Tester (Dandong Bettersize Instrument Co., Ltd.)
# Angle of repose is a key characteristic of the frictional resistance between powder particles, and is an important parameter for characterizing the powder flowability. The angle of repose is determined by measuring the height and the base radius of a cone formed by powders, with a calculation equation as follows: tan(α)=height/radius. The angle of reposes of crystal forms A and B were measured and compared for their difference, respectively.
# [4] = Tap density, bulk density, compression coefficient and Hausner ratio; settings: sodium salt
# Procedure: The compression coefficient and the Hausner ratio closely related thereto are simple and fast methods for predicting the powder property, and are often used as the index for characterizing the powder flowability. Crystal forms A and B were sampled for measuring the tap density and bulk density of powder of different crystal forms, and then the compression coefficient and the Hausner ratio were calculated. Wherein, the compression coefficient (%)=[(the tap density−the bulk density)/the tap density×100%; and the Hausner ratio=the tap density/the bulk density.
# [5] = High temperature / grinding test, change of crystal form by XRPD; settings: sodium salt
# Description: Crystal forms A and C of dexrabeprazole sodium were placed under different conditions as listed in Table 5 below, and sampled for XRPD detection to investigate the change of crystal forms.
# [6] = High humidity, RH75 ± 5%, Day 0
# [7] = High humidity, RH75 ± 5%, Day 0, sodium salt
# [8] = High humidity, RH75 ± 5%, Day 10, sodium salt
# [9] = High humidity, RH75 ± 5%, Day 20, sodium salt
# [10] = High humidity, RH75 ± 5%, Day 30, sodium salt
# [11] = High temperature, 40° C., Day 0
# [12] = High temperature, 40° C., Day 0, sodium salt
# [13] = High temperature, 40° C., Day 10
# [14] = High temperature, 40° C., Day 10, sodium salt
# [15] = High temperature, 40° C., Day 20
# [16] = High temperature, 40° C., Day 20, sodium salt
# [17] = High temperature, 40° C., Day 30
# [18] = High temperature, 40° C., Day 30, sodium salt
# [19] = Light exposure, 4500 ± 500 Lx, Day 0
# [20] = Light exposure, 4500 ± 500 Lx, Day 0, sodium salt
# [21] = Light exposure, 4500 ± 500 Lx, Day 10
# [22] = Light exposure, 4500 ± 500 Lx, Day 10, sodium salt
# [23] = Light exposure, 4500 ± 500 Lx, Day 20
# [24] = Light exposure, 4500 ± 500 Lx, Day 20, sodium salt
# [25] = Light exposure, 4500 ± 500 Lx, Day 30
# [26] = Light exposure, 4500 ± 500 Lx, Day 30, sodium salt
smiles,measurement,setting,value
"COCCCOc1ccnc(C[S@@+]([O-])c2nc3ccccc3[n-]2)c1C.[Na+] [Crystal form B, R-(+)-2-{[4-(3-methoxypropoxy)-3-methylpyrid-2-yl]methylsulfinyl}-1H-benzimidazole sodium salt]",Hygroscopic moisture (%),[1]; 0 h,4.72%
same,Hygroscopic moisture (%),[1]; 24 h,5.18%
same,Hygroscopic moisture (%),[1]; 48 h,5.75%
same,Appearance character,[2]; [6],Off-white
same,Relevant materials: Maximum individual impurity (%),[2]; [7],0.029%
same,Relevant materials: Total impurity (%),[2]; [7],0.088%
same,Appearance character,[2]; [8],Yellow
same,Relevant materials: Maximum individual impurity (%),[2]; [8],0.017%
same,Relevant materials: Total impurity (%),[2]; [8],0.141%
same,Appearance character,[2]; [9],Yellow
same,Relevant materials: Maximum individual impurity (%),[2]; [9],0.189%
same,Relevant materials: Total impurity (%),[2]; [9],0.426%
same,Appearance character,[2]; [10],Yellow
same,Relevant materials: Maximum individual impurity (%),[2]; [10],0.280%
same,Relevant materials: Total impurity (%),[2]; [10],1.300%
same,Appearance character,[2]; [11],Off-white
same,Relevant materials: Maximum individual impurity (%),[2]; [12],0.029%
same,Relevant materials: Total impurity (%),[2]; [12],0.088%
same,Appearance character,[2]; [13],Off-white
same,Relevant materials: Maximum individual impurity (%),[2]; [14],0.028%
same,Relevant materials: Total impurity (%),[2]; [14],0.090%
same,Appearance character,[2]; [15],Off-white
same,Relevant materials: Maximum individual impurity (%),[2]; [16],0.015%
same,Relevant materials: Total impurity (%),[2]; [16],0.126%
same,Appearance character,[2]; [17],Off-white
same,Relevant materials: Maximum individual impurity (%),[2]; [18],0.012%
same,Relevant materials: Total impurity (%),[2]; [18],0.190%
same,Appearance character,[2]; [19],Off-white
same,Relevant materials: Maximum individual impurity (%),[2]; [20],0.029%
same,Relevant materials: Total impurity (%),[2]; [20],0.088%
same,Appearance character,[2]; [21],Off-white
same,Relevant materials: Maximum individual impurity (%),[2]; [22],0.059%
same,Relevant materials: Total impurity (%),[2]; [22],0.120%
same,Appearance character,[2]; [23],Off-white
same,Relevant materials: Maximum individual impurity (%),[2]; [24],0.155%
same,Relevant materials: Total impurity (%),[2]; [24],0.263%
same,Appearance character,[2]; [25],Off-white
same,Relevant materials: Maximum individual impurity (%),[2]; [26],0.100%
same,Relevant materials: Total impurity (%),[2]; [26],0.360%
same,Stability compared with crystal form A,"[2]; light exposure, high temperature, and high humidity",comparable to that of crystal form A
same,"Determination of angle of repose, Average",[3],Average: 36.35°
same,Compression coefficient,[4]; (tap density − bulk density)/tap density × 100%,22.72%
same,Bulk density,[4],0.398 g · cm^−3
same,Tap density,[4],0.515 g · cm^−3
same,Hausner ratio,[4]; tap density/bulk density,1.29
"COCCCOc1ccnc(C[S@@+]([O-])c2nc3ccccc3[n-]2)c1C.[Na+] [Amorphous form, R-(+)-2-{[4-(3-methoxypropoxy)-3-methylpyrid-2-yl]methylsulfinyl}-1H-benzimidazole sodium salt, reference compound]",Hygroscopic moisture (%),[1]; 0 h,6.60%
same,Hygroscopic moisture (%),[1]; 24 h,21.60%
same,Hygroscopic moisture (%),[1]; 48 h,21.81%
"COCCCOc1ccnc(C[S@@+]([O-])c2nc3ccccc3[n-]2)c1C.[Na+] [Crystal form A, R-(+)-2-{[4-(3-methoxypropoxy)-3-methylpyrid-2-yl]methylsulfinyl}-1H-benzimidazole sodium salt, reference compound]",Hygroscopic moisture (%),[1]; 0 h,4.66%
same,Hygroscopic moisture (%),[1]; 24 h,5.10%
same,Hygroscopic moisture (%),[1]; 48 h,5.72%
same,Appearance character,[2]; [6],Off-white
same,Relevant materials: Maximum individual impurity (%),[2]; [7],0.037%
same,Relevant materials: Total impurity (%),[2]; [7],0.098%
same,Appearance character,"[2]; High humidity, RH75 ± 5%, Day 10",Yellow
same,Relevant materials: Maximum individual impurity (%),[2]; [8],0.029%
same,Relevant materials: Total impurity (%),[2]; [8],0.152%
same,Appearance character,"[2]; High humidity, RH75 ± 5%, Day 20",Yellow
same,Relevant materials: Maximum individual impurity (%),[2]; [9],0.200%
same,Relevant materials: Total impurity (%),[2]; [9],0.483%
same,Appearance character,"[2]; High humidity, RH75 ± 5%, Day 30",Yellow
same,Relevant materials: Maximum individual impurity (%),[2]; [10],0.287%
same,Relevant materials: Total impurity (%),[2]; [10],1.495%
same,Appearance character,[2]; [11],Off-white
same,Relevant materials: Maximum individual impurity (%),[2]; [12],0.037%
same,Relevant materials: Total impurity (%),[2]; [12],0.098%
same,Appearance character,[2]; [13],Off-white
same,Relevant materials: Maximum individual impurity (%),[2]; [14],0.037%
same,Relevant materials: Total impurity (%),[2]; [14],0.100%
same,Appearance character,[2]; [15],Off-white
same,Relevant materials: Maximum individual impurity (%),[2]; [16],0.021%
same,Relevant materials: Total impurity (%),[2]; [16],0.145%
same,Appearance character,[2]; [17],Off-white
same,Relevant materials: Maximum individual impurity (%),[2]; [18],0.019%
same,Relevant materials: Total impurity (%),[2]; [18],0.210%
same,Appearance character,[2]; [19],Off-white
same,Relevant materials: Maximum individual impurity (%),[2]; [20],0.037%
same,Relevant materials: Total impurity (%),[2]; [20],0.098%
same,Appearance character,[2]; [21],Off-white
same,Relevant materials: Maximum individual impurity (%),[2]; [22],0.077%
same,Relevant materials: Total impurity (%),[2]; [22],0.133%
same,Appearance character,[2]; [23],Off-white
same,Relevant materials: Maximum individual impurity (%),[2]; [24],0.099%
same,Relevant materials: Total impurity (%),[2]; [24],0.298%
same,Appearance character,[2]; [25],Off-white
same,Relevant materials: Maximum individual impurity (%),[2]; [26],0.123%
same,Relevant materials: Total impurity (%),[2]; [26],0.396%
same,Comparison of XRPD fit charts (change of crystal form),[5]; grinded in a mortar for 5 min,partially converted to an amorphous form
same,Stability of the crystal form at a high temperature,"[5]; high temperature, XRPD",unstable at a high temperature
same,"Determination of angle of repose, Average",[3],Average: 58.89°
same,Bulk density,[4],0.267 g · cm^−3
same,Tap density,[4],0.450 g · cm^−3
